# Measurements published in publication PMC5504357, “Antifungal Potential of Copper(II), Manganese(II) and Silver(I) 1,10-Phenanthroline Chelates Against Multidrug-Resistant Fungal Species Forming the Candida haemulonii Complex: Impact on the Planktonic and Biofilm Lifestyles” (Frontiers in Microbiology, 2017).
# Like-named read-outs stand apart in the source and are kept apart here.
# Experiments:
# Candida duobushaemulonii [1] = assay: Planktonic growth, broth microdilution (CLSI M27-A3), MIC; type: cell-based; conditions: for GM-MIC: geometric mean of three C. duobushaemulonii isolates; for MIC: planktonic, 48 h, 37°C
# Excerpt: (§1) Three clinical isolates of each species that form the C. haemulonii complex were used in this study: C. haemulonii (LIPCh4 from finger nail, LIPCh7 from toe nail, and LIPCh12 from blood), C. duobushaemulonii (LIPCh1 from finger nail, LIPCh6 from toe nail, and LIPCh8 from blood) and C. haemulonii var. vulnera (LIPCh5 from toe nail, LIPCh9 from urine, and LIPCh11 from blood) (Ramos et al., [2015]). The fungal isolates were identified by the automatized system VITEK® 2 and then characterized by ITS1-5.8S-ITS2 gene sequencing (Ramos et al., [2015]). Fungal cells were cultured in Sabouraud-dextrose medium under constant agitation (130 rpm) for 48 h at 37°C. Human lung adenocarcinoma A549 cells were maintained in culture flasks containing DMEM medium supplemented with 10% fetal bovine serum at 37°C in an atmosphere of 5% CO2.
# (§2) Susceptibility profile assays were performed in accordance with the broth microdilution protocol described in the document M27-A3 published by the Clinical and Laboratory Standards Institutes (CLSI, [2008]). Samples of the test chelates were dissolved in DMSO (500 μL) and then serially diluted in a 96-well plate containing RPMI 1640 (Sigma-Aldrich, USA) to give the concentration range of 0.0625-32 mg/L. Aqueous solutions of the metal-free phen ligand and the simple metal salts, MnCl2, CuCl2, and AgNO3, were also screened over the same concentration range. Caspofungin (Sigma-Aldrich) was used as a classical antifungal agent able to block the growth of all clinical isolates of C. haemulonii species as previously reported by our research group (Ramos et al., [2015]). Water dilutions containing DMSO concentrations corresponding to those used to prepare the drug solutions were assessed in parallel. Untreated and compound-treated fungal cells were incubated at 37°C for 48 h and the minimal inhibitory concentration (MIC) was established as the lowest compound concentration where no cellular growth could be detected by visual inspection in accordance to the CLSI recommendation. The geometric mean of the MIC values (GM-MIC) of each compound against all the fungal isolates was calculated using the software, Microsoft Office Excel 2013.
# [2] = tested on: Candida haemulonii var. vulnera; assay: as above; type: cell-based; conditions: for GM-MIC: geometric mean of three C. haemulonii var. vulnera isolates; for MIC: planktonic, 48 h, 37°C
# Excerpt: as §1, §2
# Candida haemulonii [3] = assay: as above; type: cell-based; conditions: for GM-MIC: geometric mean of three C. haemulonii isolates; for MIC: planktonic, 48 h, 37°C
# Excerpt: as §1, §2
# C. haemulonii complex = assay: Planktonic growth, overall across all nine isolates; type: cell-based, Candida haemulonii complex; conditions: for Overall GM-MIC / MIC: geometric mean across all nine strains; for MIC: in μM, read-out: Overall GM-MIC
# Excerpt: as §1, §2
# A549 cells = assay: Mammalian cell toxicity (MTT assay) and selectivity index; type: cell-based, Human
# Excerpt: as §1
# The cytotoxicity was evaluated using the MTT [3-(4,5-dimethylthiazol-2-yl)-2,5-diphenyl tetrazolium bromide] (Sigma-Aldrich) assay (Mosmann, [1983]). A549 cells (10^4) were seeded into tissue culture plates (TPP, Switzerland) and cultured for 24 h at 37°C in a 5% CO2 in order to obtain cellular confluence. The wells were then washed twice with DMEM to remove non-adherent cells and the test compounds were added (in concentrations ranging from 0.0313 to 512 μg/mL) to plates containing DMEM, followed by a 48 h incubation period under the same conditions mentioned above. The cellular viability was evaluated by adding MTT to each well and incubating the plates in the dark for 3 h, allowing the viable cells containing active mitochondrial dehydrogenase enzymes to metabolize MTT-tetrazolium salt into purple formazan. The formazan crystals were then dissolved in DMSO (100 μL) and the absorbance (450 nm) measured using a Thermomax Molecular Device microplate reader. The concentration capable of reducing cellular viability by 50% (CC50) was calculated, and the selectivity index (SI) determined using the following equation: A549 CC50/C. haemulonii complex GM-MIC.
# Candida duobushaemulonii [4] = assay: Biofilm-growing cells, XTT assay, bMIC; type: cell-based; conditions: for GM-bMIC: geometric mean, C. duobushaemulonii isolates; for bMIC: mature biofilm, 48 h, 50% inhibition of metabolic activity
# Method: (§3) The effect of the compounds on biofilm-growing cells was determined using the previously described microtiter-based technique (Ramage et al., [2001]). The fungi (10^6 yeast cells) were incubated for 48 h at 37°C in 96-well polystyrene microtiter plates (Corning®, Corning Incorporated, USA) containing Sabouraud-dextrose broth to accommodate biofilm formation. Following biofilm formation, the culture medium was aspirated and non-adherent cells removed by thoroughly washing the wells three times with sterile PBS (0.15 M NaCl, 0.01 M phosphate buffer, pH 7.2). Afterwards, the compounds, at the same concentrations used in the planktonic assays, were added to the wells, and the plates were incubated for further 48 h at 37°C. The metabolic activity was then evaluated using a colorimetric assay that measures the metabolic reduction of 2,3-bis (2-methoxy-4-nitro-5-sulfophenyl)-5-[(phenylamino) carbonyl]-2H-tetrazolium hydroxide (XTT; Sigma-Aldrich) to a water-soluble, brown formazan product (Peeters et al., [2008]). The biofilm MIC (bMIC) for each compound was established as the minimal concentration capable of inhibiting 50% of metabolic activity when compared to compound-free wells (Ziccardi et al., [2015]).
# [5] = tested on: Candida haemulonii var. vulnera; assay: Biofilm-growing cells, XTT assay, bMIC; type: cell-based; conditions: for GM-bMIC: geometric mean, C. haemulonii var. vulnera isolates; for bMIC: mature biofilm, 48 h, 50% inhibition of metabolic activity
# Method: as §3
# Candida haemulonii [6] = assay: Biofilm-growing cells, XTT assay, bMIC; type: cell-based; conditions: for GM-bMIC: geometric mean, C. haemulonii isolates, values marked * do not include LIP Ch4 (>512); for bMIC: mature biofilm, 48 h, 50% inhibition of metabolic activity
# Method: as §3
# [7] = tested on: Candida haemulonii complex; assay: Biofilm-growing cells, overall across isolates; type: cell-based; conditions: for Overall GM-bMIC: geometric mean across strains, values marked * do not include LIP Ch4 (>512); for decrease in activity on going from planktonic to biofilm cells: biofilm MIC versus planktonic MIC
# Method: as §3
Structure (SMILES),GM-MIC (Candida duobushaemulonii [1]),MIC (Candida duobushaemulonii [1]; isolate LIP Ch1),MIC (Candida duobushaemulonii [1]; isolate LIP Ch6),MIC (Candida duobushaemulonii [1]; isolate LIP Ch8),GM-MIC [2],MIC ([2]; isolate LIP Ch5),MIC ([2]; isolate LIP Ch9),MIC ([2]; isolate LIP Ch11),GM-MIC (Candida haemulonii [3]),MIC (Candida haemulonii [3]; isolate LIP Ch4),MIC (Candida haemulonii [3]; isolate LIP Ch7),MIC (Candida haemulonii [3]; isolate LIP Ch12),Overall GM-MIC (C. haemulonii complex),MIC (C. haemulonii complex),GM-bMIC (Candida duobushaemulonii [4]),bMIC (Candida duobushaemulonii [4]; isolate LIP Ch1),bMIC (Candida duobushaemulonii [4]; isolate LIP Ch6),bMIC (Candida duobushaemulonii [4]; isolate LIP Ch8),GM-bMIC [5],bMIC ([5]; isolate LIP Ch5),other results
"O.O.O.O.O.O.O.O.O.O.O.O.O.O.O.O.O=C([O-])c1cccc(C(=O)[O-])c1.O=C([O-])c1cccc(C(=O)[O-])c1.[Mn+2].[Mn+2].c1cnc2c(c1)ccc1cccnc12.c1cnc2c(c1)ccc1cccnc12.c1cnc2c(c1)ccc1cccnc12.c1cnc2c(c1)ccc1cccnc12.c1cnc2c(c1)ccc1cccnc12 [compound 11, {[Mn(phen)2(H2O)2]}2(isoph)2(phen).12H2O]",2.52 µg/mL,2 µg/mL,4 µg/mL,2 µg/mL,2.52 µg/mL,4 µg/mL,2 µg/mL,2 µg/mL,2.52 µg/mL,4 µg/mL,2 µg/mL,2 µg/mL,2.52 µg/mL,1.54 µM,6.35 mg/L,8 mg/L,8 mg/L,4 mg/L,8 mg/L,16 mg/L,"A549 (CC50) (A549 cells; MTT, 48 h incubation): 251.76 µg/mL; bMIC ([5]; isolate LIP Ch9): 4 mg/L; bMIC ([5]; isolate LIP Ch13): 8 mg/L; GM-bMIC (Candida haemulonii [6]): 16^* mg/L; bMIC (Candida haemulonii [6]; isolate LIP Ch4): >512 mg/L; bMIC (Candida haemulonii [6]; isolate LIP Ch7): 8 mg/L; bMIC (Candida haemulonii [6]; isolate LIP Ch14): 32 mg/L; Overall GM-bMIC [7]: 8.72 mg/L"
"O=[N+]([O-])[O-].[Ag+] [AgNO3, reference compound]",0.63 µg/mL,0.5 µg/mL,0.5 µg/mL,1 µg/mL,0.5 µg/mL,0.5 µg/mL,0.5 µg/mL,0.5 µg/mL,0.79 µg/mL,1 µg/mL,0.5 µg/mL,1 µg/mL,0.63 µg/mL,3.93 µM,32 mg/L,16 mg/L,16 mg/L,128 mg/L,40.32 mg/L,128 mg/L,"effect on planktonic fungal growth/viability (in words) (C. haemulonii complex; nine clinical isolates, 0.0625-32 mg/L): appreciably deterred fungal growth; A549 (CC50) (A549 cells; MTT, 48 h incubation): 16.98 µg/mL; bMIC ([5]; isolate LIP Ch9): 64 mg/L; bMIC ([5]; isolate LIP Ch13): 8 mg/L; GM-bMIC (Candida haemulonii [6]): 16^* mg/L; bMIC (Candida haemulonii [6]; isolate LIP Ch4): >512 mg/L; bMIC (Candida haemulonii [6]; isolate LIP Ch7): 8 mg/L; bMIC (Candida haemulonii [6]; isolate LIP Ch14): 32 mg/L; decrease in activity on going from planktonic to biofilm cells [7]: 43.8 fold; Overall GM-bMIC ([7]; in μM): 172 µM; Overall GM-bMIC [7]: 29.34 mg/L"
"O.O.O.O=C([O-])CCCCCCCCCC(=O)[O-].[Ag+].[Ag+].c1cnc2c(c1)ccc1cccnc12.c1cnc2c(c1)ccc1cccnc12.c1cnc2c(c1)ccc1cccnc12 [compound 18, [Ag2(phen)3(udda)].3H2O]",0.5 µg/mL,0.5 µg/mL,0.25 µg/mL,1 µg/mL,0.25 µg/mL,0.5 µg/mL,0.125 µg/mL,0.25 µg/mL,0.16 µg/mL,0.125 µg/mL,0.25 µg/mL,0.125 µg/mL,0.27 µg/mL,0.26 µM,10.08 mg/L,16 mg/L,8 mg/L,8 mg/L,11.31 mg/L,8 mg/L,"A549 (CC50) (A549 cells; MTT, 48 h incubation): 13.63 µg/mL; bMIC ([5]; isolate LIP Ch9): 0.5 mg/L; bMIC ([5]; isolate LIP Ch13): 16 mg/L; GM-bMIC (Candida haemulonii [6]): 16 mg/L; bMIC (Candida haemulonii [6]; isolate LIP Ch4): 32 mg/L; bMIC (Candida haemulonii [6]; isolate LIP Ch7): 8 mg/L; bMIC (Candida haemulonii [6]; isolate LIP Ch14): 16 mg/L; decrease in activity on going from planktonic to biofilm cells [7]: 46.3 fold; Overall GM-bMIC ([7]; in μM): 12.04 µM; Overall GM-bMIC [7]: 12.34 mg/L"
"O.O.O.O.O.O=C([O-])c1ccccc1C(=O)[O-].[Mn+2].c1cnc2c(c1)ccc1cccnc12.c1cnc2c(c1)ccc1cccnc12 [compound 9, [Mn(ph)(phen)2(H2O)].4H2O]",2 µg/mL,2 µg/mL,2 µg/mL,2 µg/mL,2 µg/mL,2 µg/mL,2 µg/mL,2 µg/mL,2 µg/mL,2 µg/mL,2 µg/mL,2 µg/mL,2 µg/mL,2.98 µM,5.04 mg/L,16 mg/L,4 mg/L,2 mg/L,6.35 mg/L,16 mg/L,A549 (CC50) (A549 cells): 259.34 µg/mL; bMIC ([5]; isolate LIP Ch9): 4 mg/L; bMIC ([5]; isolate LIP Ch13): 4 mg/L; GM-bMIC (Candida haemulonii [6]): 25.40 mg/L; bMIC (Candida haemulonii [6]; isolate LIP Ch4): 512 mg/L; bMIC (Candida haemulonii [6]; isolate LIP Ch7): 2 mg/L; bMIC (Candida haemulonii [6]; isolate LIP Ch14): 16 mg/L; Overall GM-bMIC ([7]; in μM): 13.93 µM; Overall GM-bMIC [7]: 9.33 mg/L
